# Data: patent publication US20240300959A1, “BALASUBRAMIDE DERIVATIVE AND USE THEREOF IN PREPARATION OF MEDICINE FOR TREATING ACUTE LUNG INJURY” (Guangdong Pharmaceutical University, priority 2023, published 2024)
# How the values were obtained:
# [1] = test system: mice with acute lung injury caused by intratracheal instillation of lipopolysaccharide; assay: Intratracheal LPS acute lung injury: wet/dry ratio, BALF TNF-α, total protein, myeloid cells; format: in vivo, ICR mice
# Method: Grouping and administration of animals: 50 male ICR mice were randomly divided into 3 groups according to the body weight, including a control group, a model group and a 50 mg/kg (+)3C-20 group. Drug preparation, administration and a modeling method were the same as those in Example 7. After continuous preadministration for 3 days, intratracheal instillation of LPS was performed for modeling 2 h after the last administration. 6 h after the modeling, a part of the mice were directly sacrificed, the whole lungs were taken out and weighed to obtain wet weight, then the whole lungs were dried at 60° C. for 24 h and weighed to obtain dry weight, and the wet-dry weight ratio of each group was calculated by statistics. 6 h after the modeling, the remaining mice were subjected to bronchoalveolar lavage, and then bronchoalveolar lavage fluid (BALF) was collected. A lavage process was as follows: After being sacrificed, the mice were placed faceup to fix the four limbs, the skin of the neck was cut, the trachea was separated and cut at an appropriate position to obtain a small incision, a 16G needle with a flat tip was inserted into the trachea at a depth of 1 cm, the trachea and the needle stem were tied tightly to obtain an indwelling needle, 400 μL of precooled PBS was sucked with a 1 mL syringe and slowly pushed into the trachea, suction was performed for two times, the operations above were repeated, and recovered BALF was combined with a recovery efficiency of 70%-80%. The collected BALF was subjected to centrifugation at 500×g at 4° C. for 5 min, a supernatant was collected, the content level of total protein in the supernatant was determined by a BCA kit, and the expression level of an inflammatory factor TNF-α in the BALF supernatant was detected according to an operation instruction of a commercial ELISA kit.
# A bottom precipitate obtained after the centrifugation of the BALF was resuspended with 100 μL of an ACK buffer (Thermo A10492 stomatocytosis agent), evenly blown and subjected to standing for 1 min. Stomatocytosis was stopped with 1 mL of an FACS buffer (PBS containing 1% of FBS), centrifugation was performed at 500×g at 4° C. for 5 min, a supernatant was discarded, 100 μL of an FACS buffer was added, 1 μL of a CD16/CD32 Fc Block antibody (1:100) was added, and incubation was performed in the dark at 4° C. for 30 min. 1 mL of an FACS buffer was added, centrifugation was performed at 500×g at 4° C. for 5 min, a supernatant was discarded, and 100 μL of an FACS buffer was added for resuspension. Various fluorescent dyes (including mCD45-PerCP-Cy5.5, mCD11b-FITC, mF4/80-APC, mLy6C-PE, mLy6G-BV421 and FVS-780) were added at a ratio of 1:300, a single dye tube of each of the fluorescent dyes was prepared according to the above ratio, and incubation was performed in the dark at 4° C. for 30 min. 1 mL of an FACS buffer was added for resuspension, centrifugation was performed at 500×g at 4° C. for 5 min, and a supernatant was discarded. Washing was repeated for one time, centrifugation was performed to remove a supernatant, 500 μL of 1% paraformaldehyde was added for fixing in the dark for 30 min, centrifugation was performed at 500×g at 4° C. for 5 min, and a supernatant was discarded. 200 μL of an FACS buffer was added for resuspension, and a resulting suspension was stored in the dark at 4° C. Before loading on a machine, the stained cell suspension was diluted with an FACS buffer, transferred to a flow tube and detected according to an operation procedure of a CytoFlex flow cytometer. A flow gate strategy was as follows: Gain was first regulated according to each single dye tube, and compensation was properly regulated, where CD45^+, CD11b^+ and F4/80^+ were macrophages, CD45^+, CD11b^+ and Ly6G^+ were neutrophils, and CD45^+, CD11b^+ and Ly6C^+ were monocytes.
# [2] = test system: TNF-α in bone marrow derived macrophages (BMDMs) stimulated by lipopolysaccharide; assay: TNF-α ELISA in LPS-stimulated bone marrow derived macrophages; format: cell-based, C57BL/6J mice; settings: for Percentage of TNF-α in a model group (%): LPS 100 ng/mL 3 h
# Method: (1) Collection of bone marrow derived macrophages (BMDMs): C57BL/6J mice were sacrificed by dislocation of cervical vertebra, completely soaked and sterilized with 75% ethanol and placed faceup on a mouse board to fix the four limbs, the skin of the hind limbs was cut, the limbs were cut at ankle joints and femoral joints, and muscles and knee joints were removed. Precooled serum-free DMEM was sucked with a 1 mL syringe to rinse the bone marrow until a leg bone turned white, a rinsing solution was filtered with a 200-mesh filter membrane and then collected into a 15 mL centrifuge tube, centrifugation was performed at 500×g for 5 min, a supernatant was discarded, and a cell precipitate was resuspended with 1 mL of a red blood cell lysis buffer. After stomatocytosis was performed for 1 min, 5 mL of DMEM was added to stop the stomatocytosis, centrifugation was performed at 500×g for 5 min, a supernatant was discarded, and cells at a lower layer were resuspended overnight with DMEM containing 10% of FBS. Monocytes were collected by centrifugation and then resuspended with a DMEM culture medium containing 20% of FBS, and M-CSF was added at a final concentration of 25 ng/mL. The cells were inoculated into a 96-well plate at a density of 6×10^5, cultured in a cell incubator with a CO2 concentration of 5% at 37° C. for 48 h, and then cultured by adding M-CSF with a final concentration of 25 ng/mL into each well for 48 h until the monocytes were subjected to adherent culture and differentiation to obtain macrophages.
# The expression level of an inflammatory factor TNF-α in a cell supernatant was detected according to an operation instruction of a commercial ELISA kit, and the cell viability at different administration concentrations of (+)3C-20 was determined according to an operation instruction of a CCK-8 kit.
# [3] = 50 mg/kg i.p. 3 days, 6 h after intratracheal LPS, model group = 100
smiles,measurement,setting,value
O=C(CCc1ccc(C(F)(F)F)cc1)O[C@@H]1C(=O)NCCc2c([nH]c3ccccc23)[C@H]1c1ccc(C(F)(F)F)cc1 [(+)-3C-20],Level of TNF-α in BALF,[1]; [3],43.31
same,Level of total protein in BALF,[1]; [3],73.44
same,Wet/Dry ratio,"[1]; 50 mg/kg i.p. 3 days, lung, 6 h after intratracheal LPS",4.28
same,Macrophage (%),"[1]; 50 mg/kg i.p., BALF flow cytometry CD45+ CD11b+ F4/80+",0.82%
same,Monocyte (%),"[1]; 50 mg/kg i.p., BALF flow cytometry CD45+ CD11b+ Ly6C+",4.13%
same,Neutrophil (%),"[1]; 50 mg/kg i.p., BALF flow cytometry CD45+ CD11b+ Ly6G+",10.47%
same,Percentage of TNF-α in a model group (%),[2]; 0.1 μM,88.17 ± 7.91%
same,Percentage of TNF-α in a model group (%),[2]; 1 μM,86.35 ± 7.41%
same,Percentage of TNF-α in a model group (%),[2]; 2.5 μM,62.94 ± 8.54 %
same,Percentage of TNF-α in a model group (%),[2]; 5 μM,35.12 ± 4.63 %
same,effective dose for inhibiting the expression of TNF-α for the BMDMs,[2]; LPS,2.5 μM or 5 μM
